Data on eight molecules can be found in patent US10899788B2, “Cyclic phosphate substituted nucleoside compounds and methods of use thereof for the treatment of viral diseases” (MERCK SHARP & DOHME CORP., priority 2016, dated 2021).

The nature of series [1]: Cytotoxicity assay in replicon cells (MTS). In kind it is cell-based. The following applies: HCV replicon cells (1b-Con1), three days post dosing, head prints EDU, method MTS, read-out: CC50 (EDU) Range. The method, then:
(§1) To measure cell-based anti-HCV activity of the compounds of the present invention, replicon cells (1b-Con1) are seeded at 5000 cells/well in 96-well plates one day prior to treatment with a compound of the invention. Various concentrations of a test compound of the invention in DMSO are then added to the replicon cells, with the final concentration of DMSO at 0.5% and fetal bovine serum at 10% in the assay media. Cells are harvested three days post-dosing, and the replicon RNA level is determined using real-time RT-PCR (Taqman assay) with GAPDH RNA as endogenous control. EC50 values are calculated from experiments with 10 serial twofold dilutions of the inhibitor in triplicate. To measure cytotoxicity in replicon cells of an inhibitor, an MTS assay is performed according to the manufacturer's protocol for CellTiter 96 Aqueous One Solution Cell Proliferation Assay (Promega, Cat #G3580) three days post dosing on cells treated identically as in replicon activity assays. […] Cytotoxicity in other types of cells may be measured using the same MTS protocol.
(§2) Data were obtained using this method for selected compounds of the present invention, and are set forth below in Table 2.

In series [2] the test system is HCV replicon cells (1b-Con1). Description: Replicon activity assay (cell-based anti-HCV activity). The settings on record: Hepatitis C virus, 72 h, three days post-dosing, replicon RNA level by real-time RT-PCR, read-out: EC50 (1b) Range. The method, then:
as §1, §2

SMILES strings stand for the structures. pEC50: −log10 of the molar value.

Take `COC(=O)CCCCO[P@@]1(=O)OC[C@H]2O[C@@H](n3ccc(=O)[nH]c3=O)[C@](C)(Cl)[C@@H]2O1` [Compound 23A]: the CC50 at 3 days in series [1] is above 50 µM. The pEC50 in series [2] was 6.00 to 6.60.
For `COC(=O)CCCCO[P@]1(=O)OC[C@H]2O[C@@H](n3ccc(=O)[nH]c3=O)[C@](C)(Cl)[C@@H]2O1` [Compound 23B], the cytotoxic concentration (CC50) at 3 days in series [1] was above 50 µM. Further, the pEC50 in series [2] is 5.00 to 6.00.
The like results for `C#C[C@@]1(O)[C@@H]2O[P@@](=O)(OCCCCC(=O)OC3CCCC3)OC[C@H]2O[C@H]1n1ccc(=O)[nH]c1=O` [Compound 24A] were, in that order, above 50 µM and 5.00 to 6.00.
The like results for `C#C[C@@]1(O)[C@@H]2O[P@](=O)(OCCCCC(=O)OC3CCCC3)OC[C@H]2O[C@H]1n1ccc(=O)[nH]c1=O` [Compound 24B] were, in that order, above 50 µM and at least 6.60.
As for `C#C[C@]1(C)[C@@H]2O[P@@](=O)(OCCC(=O)OC(C)C)OC[C@H]2O[C@H]1n1ccc(=O)[nH]c1=O` [Compound 26A], in series [1], the CC50 at 3 days was above 50 µM. Also, the pEC50 in series [2] was below 5.00.
Regarding `C#C[C@]1(C)[C@@H]2O[P@](=O)(OCCC(=O)OC(C)C)OC[C@H]2O[C@H]1n1ccc(=O)[nH]c1=O` [Compound 26B], in series [1], the CC50 at 3 days was above 50 µM. Besides, the negative-log EC50 (pEC50) in series [2] is below 5.00.
The like results for `CC(C)OC(=O)CCO[P@@]1(=O)OC[C@H]2O[C@@H](n3ccc(=O)[nH]c3=O)[C@](C)(N)[C@@H]2O1` [Compound 28A] were, in that order, above 50 µM and below 5.00.
With `CC(C)OC(=O)CCO[P@]1(=O)OC[C@H]2O[C@@H](n3ccc(=O)[nH]c3=O)[C@](C)(N)[C@@H]2O1` [Compound 28B], the CC50 at 3 days in series [1] is above 50 µM. Further, the pEC50 in series [2] was below 5.00.
